Reference: article PMC9856155, “Protein Conformational Dynamics Underlie Selective Recognition of Thermophilic over Mesophilic Enzyme I by a Substrate Analogue” (Biomolecules, 2023)
Where two headings read alike, the source gives them in different places.

Target: T1, Enzyme I C-terminal domain (tEIC) (Caldanaerobacter subterraneus, UniProt Q8R7R4)
T1 construct: gene PtsA; EIC, C-terminal domain (residues 261–575)
Experiment: 1H-15N TROSY NMR chemical shift perturbation titration
Assay type: binding
Text: 1H-15N TROSY NMR chemical shift perturbation titration on Enzyme I C-terminal domain (tEIC) | both cPEP and SEP induce significant CSPs on the spectra of tEIC localized in the vicinity of the PEP binding site | SEP is particularly interesting as it binds to the thermophilic enzyme with a KD similar to the physiological substrate

T1 sequence (Q8R7R4 250-573): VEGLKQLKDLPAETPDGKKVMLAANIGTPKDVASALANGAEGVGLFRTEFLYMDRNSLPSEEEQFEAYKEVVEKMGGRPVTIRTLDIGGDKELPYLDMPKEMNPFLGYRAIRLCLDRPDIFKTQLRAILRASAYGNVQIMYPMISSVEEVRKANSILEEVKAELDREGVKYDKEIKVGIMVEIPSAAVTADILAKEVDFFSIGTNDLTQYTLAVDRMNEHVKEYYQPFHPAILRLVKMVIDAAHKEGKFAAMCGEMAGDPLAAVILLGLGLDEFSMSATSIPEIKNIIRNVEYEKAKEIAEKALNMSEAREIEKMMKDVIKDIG

| Compound | Kd | Kd (read-out: Kd) |
| --- | --- | --- |
| C=C(CP(=O)(O)O)C(=O)O [cPEP, allylicphosphonate] | 2800 µM |  |
| C=C(OS(=O)(=O)O)C(=O)O [SEP, sulfoenolpyruvate] |  | 600 µM |
